For test [1], the target named is human activated kallikrein enzyme (Homo sapiens, UniProt P03952). As to the kind of experiment: Plasma kallikrein inhibition, fluorogenic PFR-AMC substrate, 500 pM activated kallikrein format. To be noted: 500 pM activated kallikrein, 300 uM PFR-AMC, 30 min preincubation, 10 min reaction; read-out: Primary Dose Response Assay: Average EC50. It counts as biochemical. The essentials:
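500 pM enz + cpd, 30 min RT preinc; start w/ PFR-AMC 300 uM; 10 min RT; Ex380/Em460. Buffer: Tris 20 mM pH 7.5, EDTA 1 mM, NaCl 150 mM, PEG-400 0.1%, Triton 0.1%. EC50.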

In the next test the target is T1, plasma kallikrein (Homo sapiens, UniProt P03952).
T1 construct: from tissue
The test is described as follows: Neat human plasma assay, FXIIa contact pathway-activated, PFR-AMC substrate. To be noted: citrated human plasma 78% final, 10 nM human FXIIa, 100 μM PFR-AMC; read-out: Human Plasma Assay: IC90. It counts as biochemical. The method, then: To analyze inhibition of plasma kallikrein in an ex vivo setting, the potency of compounds was measure in contact pathway-activated plasma assays. In a fluorogenic peptide substrate assay, test compounds dissolved in DMSO were added to sodium citrate collected human or rat plasma in a 96-well microplate. Alternatively, citrated plasma was collected from rats administered the compounds orally or by IV. 10 nM of human FXIIa (Enzyme Research Laboratories) diluted in pKal buffer (20 mM Tris-HCl, pH 7.5, 150 mM NaCl, 1 mM EDTA, 0.1% PEG-8000, and 0.1% Triton X-100) was added to the plasma, followed by the 100 μM of the profluorescent, synthetic plasma kallikrein substrate PFR-AMC (also diluted in pKal buffer). Final plasma concentration in the reaction was 78%. Fluorescence was immediately monitored by excitation/emission wavelengths of 360 nm/480 nm respectively over a period of 5 minutes in a microplate reader. The resulting linear increase in fluorescence emission (reflecting pKal proteolysis of PFR-AMC substrate) was fit to extract a proteolytic rate (fluorescent units over time), and this rate was subsequently plotted against compound inhibitor concentration. Resulting plots were fit to a standard 4-parameter IC50/IC90 equation to determine min/max values, IC50/90, and slope. All experimental steps were performed at room temperature. Table 50 provides results of the assay.

This note sets out measurements from US20240228488A1 (TAKEDA PHARMACEUTICAL COMPANY LIMITED, priority 2021, published 2024).

By EC50 is commonly meant the concentration needed to bring the measured effect to its halfway point. As usually defined, the IC90 is the concentration at which the effect reaches the 90% level.

Structures are written as SMILES. Where only a bound is given, the exact number is not on record here.

T1 sequence (P03952 391-638 limits assumed): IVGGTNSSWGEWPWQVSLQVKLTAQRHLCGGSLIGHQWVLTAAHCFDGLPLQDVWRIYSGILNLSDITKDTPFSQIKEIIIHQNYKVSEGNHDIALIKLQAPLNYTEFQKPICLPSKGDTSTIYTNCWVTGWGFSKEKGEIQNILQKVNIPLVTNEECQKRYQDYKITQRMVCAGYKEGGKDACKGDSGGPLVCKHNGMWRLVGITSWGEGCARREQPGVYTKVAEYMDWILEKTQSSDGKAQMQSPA
T1 sequence (P03952 20-390 partner limits assumed): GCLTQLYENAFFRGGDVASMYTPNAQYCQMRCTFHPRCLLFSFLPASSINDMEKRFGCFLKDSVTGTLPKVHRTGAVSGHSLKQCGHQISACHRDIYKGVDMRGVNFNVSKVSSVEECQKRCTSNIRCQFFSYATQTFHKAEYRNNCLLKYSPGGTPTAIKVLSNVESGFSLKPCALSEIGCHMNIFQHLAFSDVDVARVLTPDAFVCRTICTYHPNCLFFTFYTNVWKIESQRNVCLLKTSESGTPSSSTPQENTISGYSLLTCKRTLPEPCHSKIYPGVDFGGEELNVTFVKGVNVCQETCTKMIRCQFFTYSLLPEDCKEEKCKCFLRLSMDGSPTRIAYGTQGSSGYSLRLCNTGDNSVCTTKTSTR
human activated kallikrein enzyme, sequence (P03952 391-638 limits assumed): as the sequence (P03952 391-638 limits assumed) above
human activated kallikrein enzyme, sequence (P03952 20-390 partner limits assumed): as the sequence (P03952 20-390 partner limits assumed) above

For `Cc1ccnc([C@H]2C[C@@H]2C(=O)Nc2cc(N(C)Cc3cn4cc(C5CC5)cc(N5CC(=O)N(CCOCc6ccccc6)C5=O)c4n3)cc(C3CC3)n2)n1` [Example I-636, (1S,2S)—N-(4-(((8-(3-(2-(benzyloxy)ethyl)-2,4-dioxoimidazolidin-1-yl)-6-cyclopropylimidazo[1,2-a]pyridin-2-yl)methyl)(methyl)amino)-6-cyclopropylpyridin-2-yl)-2-(4-methylpyrimidin-2-yl)cyclopropane-1-carboxamide], the concentration giving a half-maximal response (EC50) in test [1] fell in the range of 1 to 10 nM. Also, the IC90 on plasma kallikrein was 1500 to 10000 nM.

Consider `CN1CC(c2cc(C3CC3)cn3cc(CNc4ccnc(NC(=O)[C@H]5C[C@@H]5c5cccc(Cl)c5)c4)nc23)C1` [Example 609, (1S,2S)-2-(3-chlorophenyl)-N-(4-(((6-cyclopropyl-8-(1-methylazetidin-3-yl)imidazo[1,2-a]pyridin-2-yl)methyl)amino)pyridin-2-yl)cyclopropane-1-carboxamide], for which the concentration giving a half-maximal response (EC50) in test [1] was below 1 nM. The concentration for an effect of 90% (IC90) at plasma kallikrein is below 400 nM.

`COCc1nc(NC(=O)[C@H]2C[C@@H]2c2nccc(C)n2)cc(N[C@H](C)c2cn3cc(C4CC4)cc(N4CC(=O)N(C)C4=O)c3n2)n1` [Example 355, (1S,2S)-N-(6-(((R)-1-(6-cyclopropyl-8-(3-methyl-2,4-dioxoimidazolidin-1-yl)imidazo[1,2-a]pyridin-2-yl)ethyl)amino)-2-(methoxymethyl)pyrimidin-4-yl)-2-(4-methylpyrimidin-2-yl)cyclopropane-1-carboxamide]: the EC50 in test [1] is below 1 nM. Also, on plasma kallikrein, the 90% effect concentration (IC90) is below 400 nM.

`CS(=O)(=O)c1cc(C2CC2)cn2cc(CNc3cc(NC(=O)[C@H]4C[C@@H]4c4cccc(Cl)c4)ncn3)nc12` [Example I-162, (1S,2S)-2-(3-chlorophenyl)-N-(6-(((6-cyclopropyl-8-(methylsulfonyl)imidazo[1,2-a]pyridin-2-yl)methyl)amino)pyrimidin-4-yl)cyclopropane-1-carboxamide]: the EC50 in test [1] lay in the range of 1 to 10 nM. Besides, the IC90 at plasma kallikrein was 1500 to 10000 nM.

Take `Cc1nc(NC(=O)[C@H]2C[C@@H]2c2ncc(F)c(C)n2)cc(N[C@H](C)c2cn3cc(C4CC4)cc(N4CC(=O)N(C)C4=O)c3n2)n1` (relative stereo) [Example 491, rac-(-(1S*,2S*)-N-(6-(((R)-1-(6-cyclopropyl-8-(3-methyl-2,4-dioxoimidazolidin-1-yl)imidazo[1,2-a]pyridin-2-yl)ethyl)amino)-2-methylpyrimidin-4-yl)-2-(5-fluoro-4-methylpyrimidin-2-yl)cyclopropane-1-carboxamide]: the concentration giving a half-maximal response (EC50) in test [1] was below 1 nM. Moreover, the IC90 at plasma kallikrein was in the range of 400 to 1500 nM.

With `Cc1ccnc([C@H]2C[C@@H]2C(=O)Nc2cc(OCc3cn4cc(C5CC5)cc(N5CC(=O)N(CC(C)(C)O)C5=O)c4n3)nc(C)n2)n1` [Example 562, (1S,2S)—N-(6-((6-cyclopropyl-8-(3-(2-hydroxy-2-methylpropyl)-2,4-dioxoimidazolidin-1-yl)imidazo[1,2-a]pyridin-2-yl)methoxy)-2-methylpyrimidin-4-yl)-2-(4-methylpyrimidin-2-yl)cyclopropane-1-carboxamide], the concentration giving a half-maximal response (EC50) in test [1] was below 1 nM. For the same compound, the IC90 on plasma kallikrein lay in the range of 400 to 1500 nM.

As to `Cc1ccnc([C@H]2C[C@@H]2C(=O)Nc2cc(N(C)Cc3cn4cc(C5CC5)cc(S(C)(=O)=O)c4n3)nc(C)n2)n1` [Example I-161, (1S,2S)-N-(6-(((6-cyclopropyl-8-(methylsulfonyl)imidazo[1,2-a]pyridin-2-yl)methyl)(methyl)amino)-2-methylpyrimidin-4-yl)-2-(4-methylpyrimidin-2-yl)cyclopropane-1-carboxamide], the EC50 in test [1] was below 1 nM. Moreover, the concentration for an effect of 90% (IC90) on plasma kallikrein fell in the range of 1500 to 10000 nM.

On to `O=C(Nc1cc(NCc2cn3cc(C4CC4)cc(C4(O)COC4)c3n2)ncn1)[C@H]1C[C@@H]1c1cccc(Cl)c1` (racemic) [Example 63, rac-(1S*,2S*)-2-(3-chlorophenyl)-N-(6-(((6-cyclopropyl-8-(3-hydroxyoxetan-3-yl)imidazo[1,2-α]pyridin-2-yl)methyl)amino)pyrimidin-4-yl)cyclopropane-1-carboxamide], for which the concentration giving a half-maximal response (EC50) in test [1] lay in the range of 1 to 10 nM. Besides, the IC90 at plasma kallikrein was 1500 to 10000 nM.

As to `CCOC(=O)CN1CCN(c2cc(C3CC3)cn3cc(CNc4ccnc(NC(=O)[C@H]5C[C@@H]5c5cccc(Cl)c5)c4)nc23)CC1` [Example 600, ethyl 2-(4-(2-(((2-((1S,2S)-2-(3-chlorophenyl)cyclopropane-1-carboxamido)pyridin-4-yl)amino)methyl)-6-cyclopropylimidazo[1,2-a]pyridin-8-yl)piperazin-1-yl)acetate], in test [1], the EC50 was below 1 nM. Besides, the IC90 at plasma kallikrein is above 48000 nM.

In the case of `O=C(Nc1cc(NCc2cn3cc(C4CC4)ccc3n2)ncn1)[C@H]1C[C@@H]1c1cccc(Cl)c1[N+](=O)[O-]` (racemic) [Example I-190, rac-(1S*,2S*)-2-(3-chloro-2-nitrophenyl)-N-(6-(((6-cyclopropylimidazo[1,2-a]pyridin-2-yl)methyl)amino)pyrimidin-4-yl)cyclopropane-1-carboxamide], in test [1], the EC50 is above 6000 nM.

For the compound `Nc1cc(C2CC2)cn2cc(CNc3cc(NC(=O)[C@H]4C[C@@H]4c4cccc(Cl)c4)ncn3)nc12` [Example 308, (1S,2S)—N-(6-(((8-amino-6-cyclopropylimidazo[1,2-a]pyridin-2-yl)methyl)amino)pyrimidin-4-yl)-2-(3-chlorophenyl)cyclopropane-1-carboxamide], the EC50 in test [1] was 1 to 10 nM.

`Cc1cc(NC(=O)[C@H]2C[C@@H]2c2nccc(C)n2)nc(OCc2cn3cc(C4CC4)cc(N4CC(=O)N(C)C4=O)c3n2)n1` [Example I-652, (1S,2S)—N-(2-((6-cyclopropyl-8-(3-methyl-2,4-dioxoimidazolidin-1-yl)imidazo[1,2-a]pyridin-2-yl)methoxy)-6-methylpyrimidin-4-yl)-2-(4-methylpyrimidin-2-yl)cyclopropane-1-carboxamide]: the 50% effective concentration (EC50) in test [1] is below 1 nM.

Take `Cc1ccnc([C@H]2C[C@@H]2C(=O)Nc2cc(CCc3cn4cc(C5CC5)cc(N5CC(=O)N(C)C5=O)c4n3)cnn2)n1` [Example 667, (1S,2S)—N-(5-(2-(6-cyclopropyl-8-(3-methyl-2,4-dioxoimidazolidin-1-yl)imidazo[1,2-a]pyridin-2-yl)ethyl)pyridazin-3-yl)-2-(4-methylpyrimidin-2-yl)cyclopropane-1-carboxamide]: the concentration for a half-maximal effect (EC50) in test [1] was below 1 nM.

Consider `CCOC(=O)Cc1cc(C2CC2)cn2cc(CNc3ccnc(NC(=O)[C@H]4C[C@@H]4c4cccc(Cl)c4)c3)nc12` [Example I-241, ethyl 2-(2-(((2-((1S,2S)-2-(3-chlorophenyl)cyclopropane-1-carboxamido)pyridin-4-yl)amino)methyl)-6-cyclopropylimidazo[1,2-a]pyridin-8-yl)acetate], for which the EC50 in test [1] was below 1 nM.

Consider `COc1cc([C@H]2C[C@@H]2C(=O)Nc2cc(NCc3cn4cc(C5CC5)ccc4n3)ccn2)cc(NC(=O)OC(C)(C)C)n1` (racemic) [Example I-216, rac-tert-butyl (4-((1S*,2S*)-2-((4-(((6-cyclopropylimidazo[1,2-a]pyridin-2-yl)methyl)amino)pyridin-2-yl)carbamoyl)cyclopropyl)-6-methoxypyridin-2-yl)carbamate], for which the EC50 in test [1] is above 6000 nM.

With `Cc1ccnc([C@H]2C[C@@H]2C(=O)Nc2ncc3c(n2)N(Cc2cn4cc(C5CC5)cc(N5CC(=O)N(C)C5=O)c4n2)CCO3)n1` [Example 631], in test [1], the concentration giving a half-maximal response (EC50) was below 1 nM.

Turning to `Nc1ccc(Cl)cc1[C@H]1C[C@@H]1C(=O)Nc1cc(NCc2cn3cc(C4CC4)ccc3n2)ncn1` (racemic) [Example 279, rac-(1S*,2S*)-2-(2-amino-5-chlorophenyl)-N-(6-(((6-cyclopropylimidazo[1,2-a]pyridin-2-yl)methyl)amino)pyrimidin-4-yl)cyclopropane-1-carboxamide], the 50% effective concentration (EC50) in test [1] was in the range of 100 to 1000 nM.

Consider `Cc1nc(NC(=O)[C@H]2C[C@@H]2c2nsc(C)n2)cc(N[C@H](C)c2cn3cc(C4CC4)cc(N4CC(=O)N(C)C4=O)c3n2)n1` (relative stereo) [Example 527, rac-(1S*,2S*)-N-(6-(((R)-1-(6-cyclopropyl-8-(3-methyl-2,4-dioxoimidazolidin-1-yl)imidazo[1,2-a]pyridin-2-yl)ethyl)amino)-2-methylpyrimidin-4-yl)-2-(5-methyl-1,2,4-thiadiazol-3-yl)cyclopropane-1-carboxamide], for which, in test [1], the 50% effective concentration (EC50) lay within 1 to 10 nM.

Turning to `Cc1ccnc([C@H]2C[C@@H]2C(=O)Nc2cc(N[C@H](C)c3cn4cc(C5CC5)cc(N5CC(=O)NC5=O)c4n3)nc(C)n2)n1` [Example 532, (1S,2S)-N-(6-(((R)-1-(6-cyclopropyl-8-(2,4-dioxoimidazolidin-1-yl)imidazo[1,2-a]pyridin-2-yl)ethyl)amino)-2-methylpyrimidin-4-yl)-2-(4-methylpyrimidin-2-yl)cyclopropane-1-carboxamide], the EC50 in test [1] is below 1 nM.
